Measured values taken from ChEMBL document CHEMBL1149580, “Caco-2 cell permeability and stability of two d-glucopyranuronamide conjugates of thyrotropin-releasing hormone” (Bioorg Med Chem, 2007).
Non-standard residues stand in square brackets, D forms with d. Residues, ends and D or L forms follow the SMILES beside them. ξ: configuration not given here. *: point of attachment. X1 = NC(=O)[C@H]1OC(N*)[C@H](O)[C@@H](O)[C@@H]1O; ξAoc(2) = CCCCCCC(N)C(=O)O

What was measured:
[1] = Apparent permeability across human Caco-2 cells; assay type: ADME, cell-based
[2] = Stability in Caco-2 cells assessed as half life; assay type: ADME, cell-based, Colon; conditions: human
[3] = Stability in Caco-2 cells after 2 hrs; assay type: ADME, cell-based; conditions: human, read-out: Stability
[4] = Stability in Caco-2 cells after 20 mins; assay type: ADME, cell-based; conditions: human, read-out: Stability

Row | Compound | Papp [1] [×10⁻⁶ cm/s] | half-life [2] [min] | remaining at 2 h [3] [%] | remaining at 20 min [4] [%]
1 | NC(=O)[C@H]1OC(NC(=O)[C@@H]2CCCN2C(=O)[C@H](Cc2cnc[nH]2)NC(=O)[C@@H]2CCC(=O)N2)[C@H](O)[C@@H](O)[C@@H]1O (stereo not given in full) | 5.1 | 20 | 20 | 
2 | CCCCCCC(N)C(=O)N[C@@H](CCC(N)=O)C(=O)N[C@@H](Cc1cnc[nH]1)C(=O)N1CCC[C@H]1C(=O)NC1O[C@H](C(N)=O)[C@@H](O)[C@H](O)[C@H]1O (stereo not given in full) (H-[ξAoc(2)]QHP-X1) | 16.3 | 20 | 20 | 
3 | OC[C@@H](O)[C@@H](O)[C@H](O)[C@H](O)CO [MANNITOL] | 0.0825 |  |  | 
4 | NC(=O)[C@@H]1CCCN1C(=O)[C@H](Cc1cnc[nH]1)NC(=O)[C@@H]1CCC(=O)N1 [PROTIRELIN] | 0.147 | 3 |  | < 5
